Experimental data taken from patent US6221865A, “Inhibitors of protein isoprenyl transferases” (priority 1998, dated 2001).
Counter-ions that a name gives are not always drawn.

What follows are compounds tested against T1, protein farnesyltransferase (Rattus norvegicus, UniProt Q02293+Q04631) (assay: Inhibition of farnesyltransferase (scintillation proximity assay, rat brain enzyme, biotin-K Ras B fragment substrate)). Settings: 1 × 10^-5 M (Table 1).
T1 construct: The enzyme is purified according to Reiss, Y., et al., Cell, 62: 81-88 (1990), utilizing steps one through three; from tissue; host or cells: rat brain
T1 sequence (Q02293 whole entry, the tested form may be a part, one chain of several): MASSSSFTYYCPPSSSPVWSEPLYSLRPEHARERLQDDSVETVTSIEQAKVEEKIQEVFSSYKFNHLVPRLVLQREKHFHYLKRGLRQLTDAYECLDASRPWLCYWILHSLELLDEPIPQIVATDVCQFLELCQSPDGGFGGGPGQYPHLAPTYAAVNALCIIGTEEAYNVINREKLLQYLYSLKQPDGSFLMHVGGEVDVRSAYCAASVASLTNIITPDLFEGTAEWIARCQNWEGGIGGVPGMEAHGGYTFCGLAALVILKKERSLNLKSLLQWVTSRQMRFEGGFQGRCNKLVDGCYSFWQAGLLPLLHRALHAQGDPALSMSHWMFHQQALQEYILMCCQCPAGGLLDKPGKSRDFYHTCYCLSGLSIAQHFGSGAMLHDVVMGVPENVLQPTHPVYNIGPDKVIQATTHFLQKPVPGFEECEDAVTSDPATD
Assay type: biochemical
Summary of the method: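 Enzyme from rat brain, partly purified (steps one to three), assayed by SPA kit using 0.1 mM final biotin-K Ras B peptide as prenyl acceptor rather than biotin-lamin. Activity given as percent inhibition.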

Compound | % inhibition of farnesyltransferase at 1 × 10^-5 M
CSCC[C@H](NC(=O)c1ccc(NC(=O)c2cccc(N(C)C)c2)cc1-c1ccccc1)C(=O)O [Example 752] | 58%
CSCC[C@H](NC(=O)c1ccc(NC(=O)[C@@H]2C[C@@H](O)CN2)cc1-c1ccccc1)C(=O)O [Example 952] | > 50%
CSCC[C@H](NC(=O)c1ccc(CNCCc2cccs2)cc1-c1ccccc1)C(=O)O [Example 369] | 87%
CSCC[C@H](NC(=O)c1ccc(CNc2ccc(F)cc2)cc1-c1ccccc1)C(=O)O [Example 687] | 78%
CSCC[C@H](NC(=O)c1ccc(CNc2ccc(Oc3ccccc3)cc2)cc1-c1ccccc1)C(=O)O [Example 701] | 64%

Same assay, conditions: 1 × 10^-6 M (Table 2)

Compound | % inhibition of farnesyltransferase at 1 × 10^-6 M
CSCC[C@H](NC(=O)c1ccc(NC(=O)Cc2ccc(C)cc2)cc1-c1ccccc1C)C(=O)O [Example 541] | 37%
CSCC[C@H](NC(=O)c1ccc(CN(Cc2ccccc2)c2ccccc2SC)cc1-c1ccccc1C)C(=O)[O-].[Li+] [Example 850] | 90%
CSCC[C@H](NC(=O)c1ccc(COC2(Cc3ccccc3)CCN(C(=O)OC(C)(C)C)CC2)cc1-c1ccccc1C)C(=O)[O-].[Li+] [Example 809] | 78%

Results, then the compound that gave them:

% inhibition of farnesyltransferase at 1 × 10^-6 M | Compound
77% | CSCC[C@H](NC(=O)c1ccc(CN(CC(c2ccccc2)c2ccccc2)c2ccccc2)cc1-c1ccccc1C)C(=O)O [Example 509]
45% | CSCC[C@H](NC(=O)c1ccc(CNc2ccc(CCO)cc2)cc1-c1ccccc1)C(=O)O [Example 694]
96% | CSCC[C@H](NC(=O)c1ccc(CN(CCc2ccccc2)C(C)C)cc1-c1ccccc1C)C(=O)O [Example 835]

Same assay, conditions: 1 × 10^-7 M (Table 3)

Compound | % inhibition of farnesyltransferase at 1 × 10^-7 M
CSCC[C@H](NC(=O)c1ccc(COCCC2CCCCC2)cc1-c1ccccc1C)C(=O)[O-].[Li+] [Example 594] | 95%
CSCC[C@H](NC(=O)c1ccc(CSCC2CCCCC2)cc1-c1ccccc1C)C(=O)[O-].[Li+] [Example 559] | 96%
COc1cccc(-c2ccc(COCc3ccc(C(=O)N[C@@H](CCSC)C(=O)[O-])c(-c4ccccc4C)c3)o2)c1.[Li+] [Example 442] | 88%
CSCC[C@H](NC(=O)c1ccc(CN[C@H](CSC(C)(C)C)CC2CCCCC2)cc1-c1ccccc1C)C(=O)O [Example 622] | 95%
CSCC[C@H](NC(=O)c1ccc(COCc2ccc(-c3ccccc3C(F)(F)F)o2)cc1-c1ccccc1C)C(=O)[O-].[Li+] [Example 438] | 90%

More lines, now with the values ahead:

% inhibition of farnesyltransferase at 1 × 10^-7 M | Compound
91% | CSCC[C@H](NC(=O)c1ccc(CNCC(=O)N(Cc2ccccc2)Cc2ccccc2)cc1-c1ccccc1C)C(=O)O [Example 914]
71% | CCCCS(=O)(=O)N(Cc1ccc(C(=O)N[C@@H](CCSC)C(=O)O)c(-c2ccccc2C)c1)[C@H](CSCC)CC1CCCCC1 [Example 950]
90% | CSCC[C@H](NC(=O)c1ccc(COCc2cccc(N(C)C)c2)cc1-c1ccccc1C)C(=O)O [Example 941]
98% | CCS(=O)(=O)C[C@H](CC1CCCCC1)NCc1ccc(C(=O)N[C@@H](CCS(C)(=O)=O)C(=O)O)c(-c2ccccc2C)c1 [Example 621]
60% | CSCC[C@H](NC(=O)c1ccc(CSc2nc3cc(C)ccc3[nH]2)cc1-c1ccccc1C)C(=O)O [Example 733]

Same assay, conditions: 1 × 10^-8 M (Table 4)

Compound | % inhibition of farnesyltransferase at 1 × 10^-8 M
CSCC[C@H](NC(=O)c1ccc(CN[C@H](CSC2CCCCC2)CC2CCCCC2)cc1-c1ccccc1C)C(=O)O [Example 766] | 95%
CSCC[C@H](NC(=O)c1ccc(COC(Cc2ccccc2)c2cncs2)cc1-c1ccccc1C)C(=O)[O-].[Li+] (stereo partly drawn) [Example 828] | 87%

Same assay, conditions: Table 6, ** = 0.01 μM (footnote); title prints 0.01 mM

Compound | % inhibition at 0.01 μM (**)
CSCC[C@H](NC(=O)c1ccc(CN(CCF)CCC2CCCCC2)cc1-c1ccccc1C)C(=O)O [Example 1094] | 96%

Same assay, conditions: read-out: % inhibition at 0.01 μM (**); Table 6, ** = 0.01 μM (footnote); title prints 0.01 mM

Compound | inhibition at 0.01 µM
CSCC[C@H](NC(=O)c1ccc(CP(=O)(CC2CCCCC2)CC2CCCCC2)cc1-c1ccccc1C)C(=O)O [Example 1214, N-[4-(Di(cylohexylmethyl)(oxophosphinyl)methyl)-2-(2-methylphenyl)benzoyl]methionine] | 92%
CSCC[C@H](NC(=O)c1ccc(CC(CCC2CCCCC2)S(=O)(=O)c2ccccc2)cc1-c1ccccc1C)C(=O)O (stereo partly drawn) [Example 1302, N-[4-(4-Cyclohexyl-2-phenylsulfonylbut-1-yl)-2-(2-methylphenyl)benzoyl]methionine Lithium Salt] | 93%
CSCC[C@H](NC(=O)c1ccc(CN2CCN(Cc3ccccc3)CC2)cc1-c1ccccc1C)C(=O)O [Example 1025] | 91%

Same assay, conditions: read-out: % inhibition at 0.1 μM (*); Table 6, * = 0.1 μM (footnote); title prints 0.1 mM

Compound | inhibition at 0.1 µM
CSCC[C@H](NC(=O)c1ccc(CN2CC(F)(F)C[C@H]2COCC2CCCCC2)cc1-c1ccccc1C)C(=O)O [Example 1117, N-[4-(2(S)-cyclohexylmethyloxymethyl-4,4-difluoropyrrolidin-1-ylmethyl)-2-(2-methylphenyl)benzoyl]methionine] | 92%

Same assay, conditions: read-out: % inhibition of farnesyltransferase at 1 × 10^-6 M; 1 × 10^-6 M (Table 2)

Compound | inhibition at 1 µM
CSCC[C@H](NC(=O)c1ccc(CN(C2CC2)C(C)(C)CC2CCCCC2)cc1-c1ccccc1C)C(=O)O [Example 316] | 63%
Cc1ccccc1-c1cc(CN(C2CC2)C2(Cc3ccccc3)CCC2)ccc1C(=O)N[C@@H](CCS(C)(=O)=O)C(=O)O [Example 333] | 99%
CSCC[C@H](NC(=O)c1ccc(CN2CCN(C(=O)OC(C)(C)C)CC2)cc1-c1ccccc1C)C(=O)O [Example 866, N-[4-(4-t-butoxycarbonylpiperazin-1-ylmethyl)-2-(2-methylphenyl)benzoyl]methionine] | 62%
CSCC[C@H](NC(=O)c1ccc(CC(Cc2ccccc2)c2ccccc2)cc1-c1ccccc1C)C(=O)O (stereo partly drawn) [Example 572, N-[4-(2,3-diphenylpropan-1-yl)-2-(2-methylphenyl)benzoyl]methionine lithium salt] | 91%

Now from value to compound:

inhibition at 1 µM | Compound
95% | CSCC[C@H](NC(=O)c1ccc(/C=C/c2cnccn2)cc1-c1ccccc1C)C(=O)O [Example 495, N-[4-(2-pyrazin-2-ylethen-1-yl)-2-(2-methylphenyl)benzoyl]methionine lithium salt]
48% | CSCC[C@H](NC(=O)c1ccc(S(=O)(=O)NCCN2CCCCC2)cc1-c1ccccc1C)C(=O)O [Example 774, lithium salt]
82% | CSCC[C@H](NC(=O)c1ccc(CNC(C)(C)Cc2ccccc2)cc1-c1ccccc1C)C(=O)O [Example 307]
91% | Cc1ccccc1-c1cc(CN(C2CC2)C2(Cc3ccccc3)CCCC2)ccc1C(=O)N[C@@H](CCS(C)(=O)=O)C(=O)O [Example 345]
36% | COc1ccc(CCNS(=O)(=O)c2ccc(C(=O)N[C@@H](CCSC)C(=O)O)c(-c3ccccc3C)c2)cc1OC [Example 776]

Same assay, conditions: read-out: % inhibition of farnesyltransferase at 1 × 10^-7 M; 1 × 10^-7 M (Table 3)

Compound | inhibition at 0.1 µM
CSCC[C@H](NC(=O)c1ccc(CCc2ccccc2Cc2ccccc2)cc1-c1ccccc1C)C(=O)O [Example 458, lithium salt] | 87%
CSCC[C@H](NC(=O)c1ccc(CCc2ccc(Oc3ccccc3)cc2)cc1-c1ccccc1C)C(=O)O [Example 462, N-[4-(2-(4-phenoxyphenyl)ethyl)-2-(2-methylphenyl)benzoyl]methionine lithium salt] | 91%
